Assay results from patent publication US20070027634A1, “Molecular hepatotoxicology modeling” (priority 2002, published 2007).

Columns and labels:
[1] = cited from earlier work
[2] = cited from earlier work; remark: listed apart in the source
[3] = in vivo; cited from earlier work
[4] = Light microscopic analysis of liver and kidney of dosed rats (present inventors)
[5] = Serum clinical chemistry of dosed rats (studies by the present inventors); details: AY-25329; as early as 6 hours after the first dose; 14 day study
[6] = cited from earlier work; remark: listed apart in the source
[7] = mice; cited from earlier work
[8] = rats and mice; cited from earlier work
rat hepatocytes = details: cited from earlier work
[9] = tested on: human hepatoma cell lines; details: cited from earlier work
[10] = rats and hamsters; cited from earlier work
[11] = rat liver mitochondria; cited from earlier work
[12] = dogs, after treatment; cited from earlier work
[13] = hamster livers; cited from earlier work
[14] = in vivo; cited from earlier work; remark: listed apart in the source
[15] = 14 days of repeated dosing, 250 mg/kg/day
[16] = acute administration, male rats
[17] = male Sprague Dawley rats, 0.1, 1, 2, 3, 4 mL/kg ip, […] po
[18] = male Sprague Dawley rats, peak within 48 hours post dose

CC(=O)Nc1ccc(O)cc1 [acetaminophen]
ALT (alanine aminotransferase) level in serum or plasma ([1]; rats): statistically significant elevations
AST (aspartate aminotransferase) level in serum or plasma ([1]; rats): statistically significant elevations
liver finding (pathology) ([2]; rats): hepatocellular necrosis
time after dosing at which hepatotoxicity can be observed ([2]; rats): 24 h

CC(=N)S [thioacetamide, Thioacetamide]
ALT (alanine aminotransferase) level in serum or plasma ([1]; rats): elevated levels
AST (aspartate aminotransferase) level in serum or plasma ([1]; rats): elevated levels
serum BUN ([1]; rats): elevated levels
serum TNFα ([1]; rats): elevated levels
serum creatinine ([1]; rats): elevated levels
serum total bilirubin ([1]; rats): elevated levels

S=C=Nc1cccc2ccccc12 [ANIT, α-naphthylisothiocyanate]
activity of catalase [3]: decreased
activity of superoxide dismutase [3]: decreased
serum glutamic oxaloacetic transaminase [3]: increase
serum glutamic pyruvic transaminase [3]: increase
serum level of alkaline phosphatase [3]: increase
serum level of total bilirubin [3]: increase
total bile flow [3]: reduced

O=C(CCN1CCN2CCCC2C1)N1c2ccccc2Sc2ccc(Cl)cc21 (stereo not drawn) [AY-25329]
kidney finding [4, 15]: nephrosis
liver finding [4, 15]: alterations in the peripheral lobes of the liver and in the cytoplasm of hepatocytes
hepatocytic mitotic figures (light microscopy) ([4]; liver, 6 and 24 hours): increased number
liver glycogen content (light microscopy) ([4]; liver, 6 and 24 hours): decreased
serum level of ALT [5]: statistically significant increases
serum level of BUN [5]: statistically significant increases
serum level of cholesterol [5]: statistically significant increases
serum level of creatinine [5]: statistically significant increases
serum level of triglycerides [5]: statistically significant increases

CN(C)N=O [DMN, dimethylnitrosamine]
ALT (alanine aminotransferase) level in serum or plasma ([1]; rats): increased
serum SOD ([1]; rats): decreased
serum malondialdehyde (MDA) ([1]; rats): increased
hydroxyproline levels (indicator of fibrosis) ([2]; rats): elevated
liver finding (pathology) ([2]; rats): severe centrilobular congestion and haemorrhagic necrosis

CC(O)(CS(=O)(=O)c1ccc(F)cc1)C(=O)Nc1ccc(C#N)c(C(F)(F)F)c1 (stereo not drawn) [bicalutamide]
ALT / glutamic-pyruvic transaminase (GPT) level ([6]; humans): elevated levels
AST / glutamic-oxalacetic transaminase (GOT) level ([6]; humans): elevated levels
alkaline phosphatase (AL-P) level ([6]; humans): elevated levels
gamma guanosine 5′-triphosphate (gamma-GTP) level ([6]; prostate cancer patients): elevated levels
levels of CYP3A1 ([2]; rats): elevated levels

ClC(Cl)Cl [chloroform, Chloroform]
levels of 5-methylcytosine and of the methylated c-myc gene [7]: Decreased levels
markers of hepatocellular regeneration (alpha-fetoprotein, retinol-binding protein, gamma-glutamyl transferase and des-gamma-carboxyprothrombin) ([6]; humans, poisoning): increased levels
alkaline phosphatase (AL-P) level ([6]; humans): decreased levels
time to cytoplasmic accumulation of lipids in hepatocytes [2, 16]: 1 to 3 h
time to focal necrosis and hydropic swelling of hepatocytes [2, 16]: 5 to 6 h
level of BUN [8]: increased levels
level of phosphatidyl-ethanolamine [8]: decreased levels
level of serum creatinine [8]: increased levels
level of tissue glutathione (GSH) [8]: decreased levels

CC(=O)O[C@]1(C(C)=O)CC[C@H]2[C@@H]3C=C(Cl)C4=CC(=O)[C@@H]5C[C@@H]5[C@]4(C)[C@H]3CC[C@@]21C [CPA, Cyproterone acetate]
time after which continuous DNA repair activity was observed ([2]; rats, single oral dose): 16 h
occurrence of S phase cells in rat liver ([2]; rats): increased

CCCC(CCC)C(=O)O [valproate, n-dipropylacetic acid]
share of patients with elevated levels of hepatic enzymes ([6]; patients): about 40%
amounts of acyl-CoA esters (rat hepatocytes; cultured rat hepatocytes): increased amounts
LDH (lactic acid dehydrogenase) leakage (rat hepatocytes; rat hepatocytes): dose-dependent leakage
liver finding (pathology) ([2]; rats): microvesicular steatosis

Cl.Nc1c2c(nc3ccccc13)CCCC2 [tacrine, 1,2,3,4-tetrahydro-9-aminoacridine-hydrochloride]
cytotoxicity [9]: displayed cytotoxicity
cytotoxicity (rat hepatocytes; primary rat hepatocytes): displayed cytotoxicity
liver finding (pathology) ([2]; rats): have not shown a correlation between tacrine exposure and hepatotoxicity

Cc1ccc(C)c(OCCCC(C)(C)C(=O)O)c1 [gemfibrozil]
DT-diaphorase activity [10]: increase
alpha-tocopherol [10]: decrease

C#C[C@]1(O)CC[C@H]2[C@@H]3CCc4cc(O)ccc4[C@H]3CC[C@@]21C [17α-ethinylestradiol]
plasma cholesterol level ([1]; male rats): decrease
plasma level of bile salts ([1]; male rats): not changed
plasma level of bilirubin ([1]; male rats): not changed
plasma triglyceride level ([1]; male rats): decrease
ALT (alanine aminotransferase) level in serum or plasma ([1]; rats): not changed
AST (aspartate aminotransferase) level in serum or plasma ([1]; rats): not changed
activity of liver enzyme alkaline phosphatase ([2]; male rats): initially showed significant increases, but enzyme levels decreased after 3 days
activity of liver enzyme leucine aminopeptidase ([2]; male rats): initially showed significant increases, but enzyme levels decreased after 3 days
bile flow ([2]; male rats): decrease
bilirubin output ([2]; male rats): increased
glutathione (GSH) output ([2]; male rats): decreased
liver finding (pathology) ([2]; rats): reversible intrahepatic cholestasis
liver weight ([2]; rats): increase

Cc1cccc(Nc2cc(Cl)nc(SCC(=O)O)n2)c1C [Wy-14643]
oxidative phosphorylation [11]: capable of uncoupling oxidative phosphorylation

CCOC(=O)C(C)(C)Oc1ccc(Cl)cc1 [clofibrate]
levels of copper in neoplastic liver tissues ([2]; rat study of liver hyperplasia and liver tumors): increased levels
liver finding (pathology) ([2]; rats): hepatocellular hypertrophy, cellular proliferation, hepatomegaly, induction of CYP450 isozymes, and induction of palmitoyl CoA oxidation

O=C(O)c1cc(-c2ccc(F)cc2F)ccc1O [diflunisal]
LDH (lactic acid dehydrogenase) leakage (rat hepatocytes; rat hepatocytes): increase
intracellular ATP (rat hepatocytes; rat hepatocytes): decreased

Cl.Nc1nc2c(Cc3ccsc3)c[nH]c2c(=O)[nH]1.O [CI-1000, 4H-pyrrolo:3,2-d:pyrimidin-4-one, 2-amino-3,5-dihydro-7-(3-thienylmethyl)-monohydrochloride monohydrate]
serum ALT level [12]: increased

CC(=O)Nc1ccc2c(c1)Cc1ccccc1-2 [2-AAF, 2-acetylaminofluorene]
ALT (alanine aminotransferase) level in serum or plasma ([1]; rats): elevated
AST (aspartate aminotransferase) level in serum or plasma ([1]; rats): elevated
liver finding (pathology) ([2]; rats): cirrhosis-like changes in the liver

COc1ccc2c(c1)c(CC(=O)O)c(C)n2C(=O)c1ccc(Cl)cc1 [indomethacin]
liver and renal microsomal enzymes, including CYP450 ([2]; rats, single dose): reduce

NN [hydrazine, Hydrazine]
hepatic adenomas and carcinomas [13]: developed in a dose-dependent manner
GSH (rat hepatocytes; rat hepatocytes): depletion
LDH (lactic acid dehydrogenase) leakage (rat hepatocytes; rat hepatocytes): leakage
intracellular ATP (rat hepatocytes; rat hepatocytes): depletion
rate of protein synthesis (rat hepatocytes; rat hepatocytes): decreased
viability (rat hepatocytes; rat hepatocytes): dose-dependent loss
liver finding (pathology) ([2]; rats): induction of fatty liver
liver weight ([2]; rats): increases

ClC(Cl)(Cl)Cl [CCl4, carbon tetrachloride]
serum α-glutathione s-transferase (α-GST) level ([1]; male SD rats, 25 μL/kg po, as early as 2 hours after administration): Significant increases
time after administration within which ALT level increases [1, 17]: ≤ 3 h
time after administration within which AST level increases [1, 17]: ≤ 3 h
peak increase of ALT level [1, 18]: 5-10 fold
peak increase of AST level [1, 18]: 5-10 fold
time of peak centrilobular necrosis and inflammatory infiltration ([2]; acute administration, male rats, post dose): 24 to 48 h
time to cytoplasmic accumulation of lipids in hepatocytes [2, 16]: 1 to 3 h
time to focal necrosis and hydropic swelling of hepatocytes [2, 16]: 5 to 6 h
time to full restoration of the liver [2, 16]: ≤ 14 days

CC(c1cc2ccccc2s1)N(O)C(N)=O (stereo not drawn) [zileuton]
levels of liver peroxisomal palmitoyl CoA oxidase [14]: elevated levels
levels of microsomal cytochromes P450 2B and P450 4A [14]: elevated levels
liver size [14]: hepatomegaly
